From patent US20250034216A1, “STEREOSELECTIVE COVALENT LIGANDS FOR ONCOGENIC AND IMMUNOLOGICAL PROTEINS” (The Scripps Research Institute, priority 2021, published 2025) come the findings set out here.

What all share (test): IA-DTB cysteine engagement
Holding throughout (format): binding
What all share (settings): 22Rv1 cells, 20 μM probe, 1 h, relative to DMSO

One assay deals with T1, LRPPRC_C571 (Homo sapiens, UniProt P42704).
T1 construct: endogenous in cells; host or cells: 22Rv1
Summed up:
(§1)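 In-situ probe treatment of cells; lysate 2 mg/mL, IA-DTB 1 h RT; MeOH/CHCl3 precipitation, DTT/iodoacetamide, trypsin; streptavidin enrichment; TMT labeling, high-pH fractionation. Ratio = TMT reporter intensity / mean DMSO channels, median-normalized.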

A further assay deals with T2, ALG3_C21 (Homo sapiens, UniProt Q92685).
T2 construct: endogenous in cells; host or cells: 22Rv1
T2 sequence (Q92685 1-438): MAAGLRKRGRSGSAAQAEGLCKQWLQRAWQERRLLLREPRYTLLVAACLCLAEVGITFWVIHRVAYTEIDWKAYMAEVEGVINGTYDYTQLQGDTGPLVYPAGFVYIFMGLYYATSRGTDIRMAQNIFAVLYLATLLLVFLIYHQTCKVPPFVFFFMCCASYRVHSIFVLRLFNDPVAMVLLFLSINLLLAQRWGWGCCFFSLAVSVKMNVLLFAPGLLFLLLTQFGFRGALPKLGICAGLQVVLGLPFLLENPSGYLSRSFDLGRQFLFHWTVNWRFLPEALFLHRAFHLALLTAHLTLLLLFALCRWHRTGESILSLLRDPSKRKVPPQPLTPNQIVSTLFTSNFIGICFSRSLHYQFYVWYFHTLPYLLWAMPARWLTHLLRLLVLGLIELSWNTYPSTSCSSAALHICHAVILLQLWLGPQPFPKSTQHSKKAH
Summed up: as §1

Another assay concerns the target T3, VPS18_C522 (Homo sapiens, UniProt Q9P253).
T3 construct: endogenous in cells; host or cells: 22Rv1
T3 sequence (Q9P253 1-973): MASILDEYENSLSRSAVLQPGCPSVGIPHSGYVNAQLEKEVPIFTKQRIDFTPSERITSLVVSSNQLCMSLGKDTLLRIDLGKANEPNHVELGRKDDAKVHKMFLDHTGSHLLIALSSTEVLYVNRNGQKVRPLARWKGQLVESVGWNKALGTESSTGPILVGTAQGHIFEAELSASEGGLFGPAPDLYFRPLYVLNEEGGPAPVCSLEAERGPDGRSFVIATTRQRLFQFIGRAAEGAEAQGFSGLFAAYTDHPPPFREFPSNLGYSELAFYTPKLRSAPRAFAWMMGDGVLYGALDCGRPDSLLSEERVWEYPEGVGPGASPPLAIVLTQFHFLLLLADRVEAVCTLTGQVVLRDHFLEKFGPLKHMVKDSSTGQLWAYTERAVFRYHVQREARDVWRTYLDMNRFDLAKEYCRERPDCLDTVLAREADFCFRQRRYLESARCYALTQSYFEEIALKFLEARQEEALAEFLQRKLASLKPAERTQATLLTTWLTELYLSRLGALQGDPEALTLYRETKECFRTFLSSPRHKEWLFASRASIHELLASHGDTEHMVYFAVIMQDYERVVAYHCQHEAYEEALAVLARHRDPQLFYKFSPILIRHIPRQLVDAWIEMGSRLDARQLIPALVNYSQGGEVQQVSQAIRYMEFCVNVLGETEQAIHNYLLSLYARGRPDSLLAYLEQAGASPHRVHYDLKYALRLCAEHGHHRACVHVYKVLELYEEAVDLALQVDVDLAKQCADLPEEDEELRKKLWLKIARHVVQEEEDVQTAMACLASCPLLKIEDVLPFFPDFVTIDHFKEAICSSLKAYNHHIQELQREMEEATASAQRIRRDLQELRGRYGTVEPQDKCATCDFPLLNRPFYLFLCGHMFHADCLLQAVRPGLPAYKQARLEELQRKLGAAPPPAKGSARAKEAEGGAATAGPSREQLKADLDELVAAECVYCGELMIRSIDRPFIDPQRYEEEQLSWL
Summed up: as §1

On to `C=CC(=O)N1C[C@@H](c2ccc(Br)cc2)[C@H]1C(=O)Nc1cccc2cccnc12` [MY-1A, (2S,3R)-1-acryloyl-3-(4-bromophenyl)-N-(quinolin-8-yl)azetidine-2-carboxamide], for which the “% engagement LRPPRC_C571” value on LRPPRC_C571 worked out at 73.5%. At ALG3_C21, the “% engagement ALG3_C21” value is on record as 90.25%. Moreover, the “% engagement VPS18_C522” value at VPS18_C522 was −22%.
For `C=CC(=O)N1C[C@H](c2ccc(Br)cc2)[C@@H]1C(=O)Nc1cccc2cccnc12` [MY-1B, (2R,3S)-1-acryloyl-3-(4-bromophenyl)-N-(quinolin-8-yl)azetidine-2-carboxamide] the same measures were 7%, 68% and 45%.
For `C=CC(=O)N1C[C@H](c2ccc(Br)cc2)[C@H]1C(=O)Nc1cccc2cccnc12` [MY-3A, (2S,3S)-1-acryloyl-3-(4-bromophenyl)-N-(quinolin-8-yl)azetidine-2-carboxamide] the same measures were 20%, 74.5% and 88%.
Taken in the same sequence, the figures for `C=CC(=O)N1C[C@H](c2ccc(Br)cc2)[C@H]1C(=O)Nc1cccc2cccnc12` [MY-3B, (2S,3S)-1-acryloyl-3-(4-bromophenyl)-N-(quinolin-8-yl)azetidine-2-carboxamide] were 5%, 84.75% and 21%.
